The target in series [1] is Bromodomain-containing protein 3 (Homo sapiens, UniProt Q15059). The series is described as follows: Binding affinity to human partial length BRD3 (BD1) (P24 to E144 residues) expressed in bacterial expression system by BROMOscan assay.
Series [2] is described as follows: Toxicity in CD1 mouse assessed as mortality at 50 to 100 mg/kg, po administered once daily for 5 days and observed for 5 days after last dose. The class given is organism-based. Conditions: in vivo, 120 h, dose 50-100 mg/kg, time 5 day.
The target of series [3] is Bromodomain testis-specific protein (Homo sapiens, UniProt Q58F21). The series is described as follows: Binding affinity to human partial length BRDT (BD1,2) (N21 to E382 residues) expressed in bacterial expression system by BROMOscan assay.
Another series addresses CYP3A4 (Homo sapiens, UniProt P08684). Briefly: Inhibition of human CYP3A4 at 10 uM using testosterone as substrate relative to control. The class given is ADME. Conditions: probe testosterone.
Series [4] in a line: Stability in mouse liver microsomes assessed as half life. The class given is ADME, Microsome. (Microsomes from liver hold many membrane-bound enzymes, among them those of drug oxidation.)
Series [5] can be described thus: Stability in human liver microsomes assessed as half life. The class given is ADME, Microsome.
Series [6] can be described thus: AUC(0 to infinity) in CD-1 mouse at 2 mg/kg, iv. The class given is ADME, organism-based. On the set-up: time infinity, route intravenous, dose 2 mg/kg. Conditions: mouse, in vivo.
In series [7] the target is Bromodomain-containing protein 2 (Homo sapiens, UniProt P25440). Briefly: Binding affinity to human partial length BRD2 (BD1) (K71 to N194 residues) expressed in bacterial expression system by BROMOscan assay.
A further series concerns Mus musculus. The series is described as follows: Antiarthritic activity in collagen/complete freund's adjuvant-induced arthritis DBA/1 mouse model assessed as hind paw histological score at 50 mg/kg, po administered via gavage starting from day 21 to day 41 post collagen/CFA challenge and measured on day 42 by hematoxylin-eosin staining based assay (reference value: 2.66 +/- 0.44 au). The class given is functional. Conditions: time 21 day.

The subject of the next series is Kasumi 1. Briefly: Antiproliferative activity against human Kasumi-1 cells after 72 hrs by Celltiter-Glo assay. The class given is functional, cell-based. Conditions: Kasumi 1, 72 h.

CYP3A4, sequence (P08684 whole entry): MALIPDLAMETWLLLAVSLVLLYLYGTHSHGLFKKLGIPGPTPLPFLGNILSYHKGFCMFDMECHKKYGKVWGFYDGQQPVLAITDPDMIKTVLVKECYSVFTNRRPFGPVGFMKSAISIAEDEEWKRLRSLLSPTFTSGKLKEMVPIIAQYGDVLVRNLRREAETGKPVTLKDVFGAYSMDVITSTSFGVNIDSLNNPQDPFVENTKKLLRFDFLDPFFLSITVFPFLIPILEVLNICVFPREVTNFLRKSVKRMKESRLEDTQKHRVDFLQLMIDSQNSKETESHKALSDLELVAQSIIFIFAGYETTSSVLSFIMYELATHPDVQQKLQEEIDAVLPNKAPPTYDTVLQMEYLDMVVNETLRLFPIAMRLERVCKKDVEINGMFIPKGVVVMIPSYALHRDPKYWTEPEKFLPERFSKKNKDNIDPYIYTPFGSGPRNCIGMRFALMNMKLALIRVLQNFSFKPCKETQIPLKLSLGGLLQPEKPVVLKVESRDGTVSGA
Bromodomain-containing protein 3, sequence (Q15059 whole entry, the tested form may be a part): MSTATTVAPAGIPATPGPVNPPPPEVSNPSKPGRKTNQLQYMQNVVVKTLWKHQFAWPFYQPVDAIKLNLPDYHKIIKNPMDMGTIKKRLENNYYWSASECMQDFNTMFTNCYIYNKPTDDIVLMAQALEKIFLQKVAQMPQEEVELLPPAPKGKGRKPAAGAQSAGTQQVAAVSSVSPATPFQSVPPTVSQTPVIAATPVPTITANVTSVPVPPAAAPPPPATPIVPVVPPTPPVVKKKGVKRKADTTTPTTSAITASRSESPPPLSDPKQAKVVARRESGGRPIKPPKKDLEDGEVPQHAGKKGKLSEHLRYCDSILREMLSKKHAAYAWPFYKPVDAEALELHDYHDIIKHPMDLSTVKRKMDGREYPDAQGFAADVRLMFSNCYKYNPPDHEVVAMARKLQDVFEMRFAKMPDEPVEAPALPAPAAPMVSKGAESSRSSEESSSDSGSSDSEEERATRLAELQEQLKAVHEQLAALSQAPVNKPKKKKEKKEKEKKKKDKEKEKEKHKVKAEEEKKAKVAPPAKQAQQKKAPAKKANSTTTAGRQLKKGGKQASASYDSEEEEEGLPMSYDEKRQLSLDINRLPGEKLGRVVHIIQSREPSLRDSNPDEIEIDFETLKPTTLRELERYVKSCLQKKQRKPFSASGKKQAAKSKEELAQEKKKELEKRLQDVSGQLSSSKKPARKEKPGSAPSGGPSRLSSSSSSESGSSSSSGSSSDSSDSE
Bromodomain-containing protein 2, sequence (P25440 whole entry, the tested form may be a part): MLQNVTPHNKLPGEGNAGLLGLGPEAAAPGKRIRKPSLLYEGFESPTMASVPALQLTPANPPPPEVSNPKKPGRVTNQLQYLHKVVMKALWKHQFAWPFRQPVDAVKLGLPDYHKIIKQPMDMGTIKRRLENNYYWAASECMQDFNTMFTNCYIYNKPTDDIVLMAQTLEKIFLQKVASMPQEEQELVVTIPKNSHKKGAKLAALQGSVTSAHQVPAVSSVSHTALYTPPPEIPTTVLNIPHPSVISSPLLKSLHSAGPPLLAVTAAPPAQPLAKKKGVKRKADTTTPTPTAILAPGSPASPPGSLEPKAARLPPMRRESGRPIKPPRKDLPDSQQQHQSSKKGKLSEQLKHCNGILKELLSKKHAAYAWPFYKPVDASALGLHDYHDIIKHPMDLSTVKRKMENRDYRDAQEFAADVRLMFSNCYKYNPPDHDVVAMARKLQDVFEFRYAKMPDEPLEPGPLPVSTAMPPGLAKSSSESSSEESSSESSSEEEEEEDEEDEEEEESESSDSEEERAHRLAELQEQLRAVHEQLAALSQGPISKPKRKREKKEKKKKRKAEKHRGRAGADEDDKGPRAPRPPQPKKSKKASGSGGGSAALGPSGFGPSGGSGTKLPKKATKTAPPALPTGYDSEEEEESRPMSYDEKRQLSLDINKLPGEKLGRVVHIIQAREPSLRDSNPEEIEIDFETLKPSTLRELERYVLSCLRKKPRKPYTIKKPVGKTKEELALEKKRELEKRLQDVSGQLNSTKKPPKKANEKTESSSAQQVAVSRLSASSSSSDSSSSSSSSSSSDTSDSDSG

For `Cc1noc(C)c1-c1ccc2nc(-c3cnn(CC(C)(C)O)c3)nc(N3CCOC[C@@H]3c3ccccc3)c2c1`, the Kd in series [1] came out at 11 nM; in series [3], 170 nM; in [7] it was 45 nM. Besides, the Activity entry in series [2] was “Non-Toxic”; in the series with Mus musculus, 0.5 a.u. In addition, the inhibition at 10 µM against CYP3A4 was less than 50%. Besides, in [4], the t1/2 turned out to be 0.367 h. Besides, the half-life in series [5] came to 1.7 h. This molecule also showed an area under the curve (AUC) in series [6] of 5025 ng·h/mL. The molecule also gave an IC50 with Kasumi 1 of 220 nM.

Broadly, the Kd is a measure of binding affinity in units of concentration. A low value points to tighter binding. Broadly, the inhibition is the relative decrease from the control value, in per cent. A lower inhibition goes with a response near the control. In general, half-life refers to how long it takes for the measured level to halve. Usually AUC stands for the area under the concentration-time curve, a measure of exposure. One may read the IC50 as the concentration that inhibits the measured activity by half.

The values are drawn from ChEMBL document CHEMBL4665641, “Lead optimization and efficacy evaluation of quinazoline-based BET family inhibitors for potential treatment of cancer and inflammatory diseases” (Bioorg Med Chem Lett, 2019).
